# According to publication PMC5635000, “Structural and mechanistic characterization of an archaeal-like chaperonin from a thermophilic bacterium” (Nature Communications, 2017):
# Tests used:
# Ch-CPN [1] = target: T1, Ch-CPN (Carboxydothermus hydrogenoformans, UniProt Q3AF10); test: X-ray crystal structure, […] Å; type: binding; settings: open conformation; nucleotide site of equatorial domain; no Mg2+ seen; 3 mM ADP, pH 7.0
# T1 construct: gene CHY_0413; full-length wild type, 521 residues; recombinant from E. coli BL21(DE3), no tag mentioned; homo-hexadecamer of two octameric rings; residues 10-502 (5X9V) and 9-502 (5X9U) modelled
# T1 sequence (Q3AF10 1-521): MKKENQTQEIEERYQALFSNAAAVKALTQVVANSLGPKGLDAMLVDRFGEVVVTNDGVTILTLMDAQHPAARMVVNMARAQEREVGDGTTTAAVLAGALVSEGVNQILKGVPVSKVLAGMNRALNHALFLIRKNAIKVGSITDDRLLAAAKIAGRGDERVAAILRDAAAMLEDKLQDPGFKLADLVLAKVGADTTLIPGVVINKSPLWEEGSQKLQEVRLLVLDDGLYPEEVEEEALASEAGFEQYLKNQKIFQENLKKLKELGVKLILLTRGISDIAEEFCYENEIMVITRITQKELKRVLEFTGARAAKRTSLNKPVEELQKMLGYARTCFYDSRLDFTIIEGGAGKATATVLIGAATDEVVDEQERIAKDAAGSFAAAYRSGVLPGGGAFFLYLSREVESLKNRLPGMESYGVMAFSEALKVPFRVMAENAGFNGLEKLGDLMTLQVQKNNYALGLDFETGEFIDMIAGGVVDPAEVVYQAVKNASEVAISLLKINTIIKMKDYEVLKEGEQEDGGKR
# Ch-CPN [2] = target: T1, Ch-CPN; test: X-ray crystal structure, […] Å; type: binding; settings: closed conformation; nucleotide site of equatorial domain; Mg2+; 3 mM AMPPNP, pH 7.5
# [3] = target: Ch-CPN L439A pivot joint mutant (Carboxydothermus hydrogenoformans) (UniProt Q3AF10); test: not stated; L439A subunits purified as hexadecameric chaperonins (Supplementary Fig. 12b)
# [4] = target: Group III chaperonin from Carboxydothermus hydrogenoformans (Ch-CPN), wild type (Carboxydothermus hydrogenoformans) (UniProt Q3AF10); test: crystal structure; Ch-CPN with 3 mM AMPPNP, closed conformation; batch crystallisation at 22 °C, 20 mM MgCl2, 100 mM HEPES:NaOH pH 7.5; 3.0 Å
molecule,measurement,setting,value
Nc1ncnc2c1ncn2[C@@H]1O[C@H](COP(=O)(O)OP(=O)(O)O)[C@@H](O)[C@H]1O [ADP],"X-ray crystal structure, 4.0 Å",Ch-CPN [1],The crystal structure of the ADP-bound Ch-CPN shows its fully open conformation
Nc1ncnc2c1ncn2[C@@H]1O[C@H](COP(=O)(O)OP(=O)(O)NP(=O)(O)O)[C@@H](O)[C@H]1O [AMPPNP],"X-ray crystal structure, 3.0 Å",Ch-CPN [2],"crystal structure of Ch-CPN in complex with AMPPNP, an ATP analog, revealed its closed conformation"
Ch-CPN L439A pivot joint mutant (from UniProt Q3AF10 1-521) (natural protein),stoichiometry N,[3],16
"Group III chaperonin from Carboxydothermus hydrogenoformans (Ch-CPN), wild type (from UniProt Q3AF10 1-521) (natural protein)",stoichiometry N,[4],16
